Data taken from US20050176685A1 (priority 2002, published 2005).

What was measured:
[1] = molecular target: T1, vitamin D receptor (Homo sapiens, UniProt P11473); details: compared with 1α,25-dihydroxy-cholecalciferol; cited from earlier work
T1 sequence (P11473 1-427): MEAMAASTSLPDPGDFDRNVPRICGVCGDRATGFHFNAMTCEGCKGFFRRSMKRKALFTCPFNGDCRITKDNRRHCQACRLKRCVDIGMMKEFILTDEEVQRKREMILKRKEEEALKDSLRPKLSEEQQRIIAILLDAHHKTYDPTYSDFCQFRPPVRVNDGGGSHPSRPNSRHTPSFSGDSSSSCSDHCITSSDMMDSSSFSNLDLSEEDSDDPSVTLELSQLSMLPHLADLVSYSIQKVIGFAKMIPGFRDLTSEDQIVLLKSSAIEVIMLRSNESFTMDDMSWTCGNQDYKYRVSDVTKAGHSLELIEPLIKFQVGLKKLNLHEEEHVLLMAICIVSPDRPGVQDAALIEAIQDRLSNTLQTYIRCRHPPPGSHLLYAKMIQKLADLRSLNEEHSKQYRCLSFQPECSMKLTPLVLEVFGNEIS

[2] = 50 micrograms equivalent to about 70 micrograms (2800 IU) of vitamin D3; cited from earlier work

Structure (SMILES)	Progression of vertebral deformity (compared to placebo patients)	Decrease in the risk of vertebral fractures (compared to placebo, statistically significant, patients with fractures)	Reduction in vertebral fracture rate per 100 patients (total number of vertebral fractures, compared to placebo)	Intrinsic activity relative to 1α,25-dihydroxy-cholecalciferol [1]	Potency relative to vitamin D3 [2]
NCCCC(O)(P(=O)(O)O)P(=O)(O)O [alendronate, 4-Amino-1-hydroxybutylidene-1,1-bisphosphonic acid monosodium trihydrate]	statistically significant decrease	at least 40%	at least 50%		
C=C1CC[C@H](O)C/C1=C/C=C1\CCC[C@]2(C)[C@@H]([C@H](C)CCCC(C)(C)O)CC[C@@H]12 [25-hydroxy-cholecalciferol]				about 100 fold lower	about 1.4 times
